Laboratory results as given in ChEMBL document CHEMBL4706577, “Design, synthesis, antitrypanosomal activity, DNA/RNA binding and in vitro ADME profiling of novel imidazoline-substituted 2-arylbenzimidazoles” (Eur J Med Chem, 2020).
The source made the active and inactive calls. The calls are words filed in the database; no cut-off is given here.

What was measured:
[1] = Efflux ratio of apparent permeability from basolateral to apical side over apical to basolateral side in MDCK-MDR1 cells; format: ADME, cell-based, Canis lupus familiaris; settings: dog
[2] = Apparent permeability across basolateral to apical side in dog MDCK-MDR1 cells incubated for 60 mins by LC-MS/MS analysis; format: ADME, cell-based, Canis lupus familiaris
[3] = system: Trypanosoma brucei brucei; test: Antitrypanosomal activity against bloodstream form of Trypanosoma brucei brucei 221 assessed as parasite growth inhibition at 100 ug/ml incubated for 48 hrs by resazurin staining based assay relative to control; format: functional
[4] = Apparent permeability across apical to basolateral side in dog MDCK-MDR1 cells incubated for 60 mins by LC-MS/MS analysis; format: ADME, cell-based, Canis lupus familiaris
[5] = system: Trypanosoma brucei brucei; test: Antitrypanosomal activity against bloodstream form of Trypanosoma brucei brucei 221 assessed as parasite growth inhibition at 10 ug/ml incubated for 48 hrs by resazurin staining based assay relative to control; format: functional
[6] = system: Trypanosoma brucei brucei; test: Antitrypanosomal activity against bloodstream form of Trypanosoma brucei brucei 221 assessed as parasite growth inhibition incubated for 48 hrs by resazurin staining based assay; format: functional, organism-based; settings: for IC50: Trypanosoma brucei, 221, 48 h; for IC90: Trypanosoma brucei, 221, time 48 hrs
[7] = Selectivity index, ratio of IC50 for rat L6 cells to IC50 for Trypanosoma brucei brucei 221; format: toxicity; settings: read-out: Ratio IC50
L6 = test: Cytotoxicity against rat L6 cells incubated for 6 days by resazurin dye based assay; format: cell-based; settings: L6, 144 h
[8] = system: Trypanosoma brucei brucei; test: Potency index, ratio of nifurtimox IC50 to compound IC50 for antitrypanosomal activity against blood stream form of Trypanosoma brucei brucei 221; format: functional
[9] = system: Poly(dA-dT)oligonucleotide; test: Binding affinity to p(dAdT)2 (unknown origin) assessed as binding constant by fluorescence spectra analysis; format: nucleic-acid assay
Calf thymus DNA [10] = test: Binding affinity to calf thymus DNA assessed as binding constant by fluorescence spectra analysis; format: nucleic-acid assay; settings: Bos taurus
dsDNA = test: Binding affinity to minor groove of ds-DNA (unknown origin) assessed as positive ICD band by CD spectroscopy; format: nucleic-acid assay
[11] = system: Trypanosoma brucei brucei; test: Antitrypanosomal activity against bloodstream form of Trypanosoma brucei brucei 221 assessed as parasite growth inhibition at 1 ug/ml incubated for 48 hrs by resazurin staining based assay relative to control; format: functional
[12] = system: Poly(dA-dU)oligonucleotide; test: Binding affinity to poly A-poly U (unknown origin) assessed as binding constant by fluorescence spectra analysis; format: nucleic-acid assay
[13] = system: Poly(dA-dU)oligonucleotide; test: Binding affinity to poly A-poly U (unknown origin) assessed as thermal stability by measuring melting temperature by spectrophotometric method; format: nucleic-acid assay
Calf thymus DNA [14] = test: Binding affinity to calf thymus DNA assessed as thermal stability by measuring melting temperature by spectrophotometric method; format: nucleic-acid assay; settings: Bos taurus
RNA = test: Binding affinity to major groove of ds-RNA (unknown origin) assessed as positive ICD band by CD spectroscopy; format: nucleic-acid assay
[15] = system: Poly(dA-dT)oligonucleotide; test: Binding affinity to poly (dA-dT)2 (unknown origin) assessed as thermal stability by measuring melting temperature by spectrophotometric method; format: nucleic-acid assay
[16] = system: Poly(dG-dC)oligonucleotide; test: Binding affinity to p(dGdC)2 (unknown origin) assessed as binding constant by fluorescence spectra analysis; format: nucleic-acid assay
[17] = system: Trypanosoma brucei brucei; test: Antitrypanosomal activity against bloodstream form of Trypanosoma brucei brucei assessed as parasite growth inhibition incubated for 3 days by alamar blue staining based assay; settings: 72 h

Row | SMILES | efflux ratio [1] | Papp B→A at 1 h [2] [×10⁻⁶ cm/s] | inhibition at 100 µg/mL [3] [%] | Papp A→B at 1 h [4] [×10⁻⁶ cm/s] | other results
1 | COc1cc(-c2nc3cc(C4=NCCN4)ccc3[nH]2)ccc1OCCN1CCOCC1.Cl.Cl | 1.04 | 0.67 | 100 | 0.64 | 
2 | Cl.Fc1cc(-c2nc3cc(C4=NCCN4)ccc3[nH]2)ccc1OCc1ccccn1 | > 2.4 | 0.2 | 100 | < 0.1 | inhibition at 10 µg/mL [5]: 40%
3 | Cl.Cl.O=C(COc1ccc(-c2nc3cc(C4=NCCN4)ccc3[nH]2)cc1)N1CCOCC1 | 1.44 | 1.53 | 100 | 1.06 | 
4 | COc1cc(-c2nc3cc(C4=NCCN4)ccc3[nH]2)ccc1OCC(=O)N1CCOCC1.Cl.Cl | 0.78 | 1.38 | 100 | 1.76 | 
5 | COc1cc(-c2nc3cc(C4=NCCN4)ccc3[nH]2)ccc1OCc1cn(Cc2ccccc2)nn1.Cl |  | < 0.1 | 100 | < 0.1 | 
6 | Cl.Fc1cc(-c2nc3cc(C4=NCCN4)ccc3[nH]2)ccc1OCc1cn(Cc2ccccc2)nn1 |  | 0.09 | 100 | < 0.1 | 
7 | Cl.O=C(COc1ccc(-c2nc3cc(C4=NCCN4)ccc3[nH]2)cc1)c1ccccc1 |  | 0.11 | 100 | < 0.1 | 
8 | CCN(CC)CCOc1ccc(-c2nc3cc(C4=NCCN4)ccc3[nH]2)cc1OC.Cl.Cl | > 5 | 0.5 | 100 | < 0.1 | IC50 [6]: 0.71 µM; IC90 [6]: 1.47 µM; selectivity ratio [7]: > 350; IC50 (L6): > 250 µM; Ratio IC50 [8]: >2; log Ks [9]: 7.1; log Ks (Calf thymus DNA [10]): 6.8; Activity (dsDNA): Active; inhibition at 1 µg/mL [11]: > 90%; log Ks [12]: 5.4; ΔTm [13]: 2.3 °C; ΔTm (Calf thymus DNA [14]): 7.2 °C; Activity (RNA): Active; ΔTm [15]: 19.3 °C
9 | CCN(CC)CCOc1ccc(-c2nc3cc(C4=NCCN4)ccc3[nH]2)cc1F.Cl.Cl | 2.92 | 0.49 | 100 | 0.17 | IC50 [6]: 3.67 µM; selectivity ratio [7]: > 68; IC50 (L6): > 250 µM; log Ks [9]: 6.4; log Ks (Calf thymus DNA [10]): 6; inhibition at 1 µg/mL [11]: > 90%; log Ks [12]: 4.9; ΔTm [13]: 2.4 °C; ΔTm (Calf thymus DNA [14]): 4.5 °C; ΔTm [15]: 14.7 °C; log Ks [16]: 4.5
10 | Cl.O=C(COc1ccc(-c2nc3cc(C4=NCCN4)ccc3[nH]2)cc1F)c1ccccc1 |  | < 0.1 | 100 | < 0.1 | 
11 | Cl.c1cc(-c2nc3cc(C4=NCCN4)ccc3[nH]2)ccc1OCCN1CCOCC1 | 1.4 | 0.69 | 100 | 0.49 | 
12 | Cl.Cl.c1cc(-c2nc3cc(C4=NCCN4)ccc3[nH]2)ccc1OCc1cn(CCN2CCOCC2)nn1 | 1.09 | 1.18 | 100 | 1.09 | IC50 [6]: > 4 µM; inhibition at 1 µg/mL [11]: > 90%
13 | Cl.Cl.Fc1cc(-c2nc3cc(C4=NCCN4)ccc3[nH]2)ccc1OCc1cn(CCN2CCOCC2)nn1 | 1.64 | 0.8 | 100 | 0.49 | IC50 [6]: > 4 µM
14 | Cl.c1ccc(COc2ccc(-c3nc4cc(C5=NCCN5)ccc4[nH]3)cc2)nc1 | 7.82 | 0.51 | 100 | 0.07 | 
15 | Cl.Cl.O=C(COc1ccc(-c2nc3cc(C4=NCCN4)ccc3[nH]2)cc1F)N1CCOCC1 | 1.16 | 0.99 | 100 | 0.86 | 
16 | COc1cc(-c2nc3cc(C4=NCCN4)ccc3[nH]2)ccc1OCC(=O)c1ccccc1.Cl |  |  | 100 | < 0.1 | 
17 | COc1cc(-c2nc3cc(C4=NCCN4)ccc3[nH]2)ccc1OCc1cn(CCN2CCOCC2)nn1.Cl.Cl | 1.86 | 0.89 | 100 | 0.48 | 
18 | Cl.c1cc(-c2nc3cc(C4=NCCN4)ccc3[nH]2)ccc1OCc1c[nH]nn1 | 1.81 | 0.84 | 100 | 0.46 | IC50 [6]: > 4 µM; inhibition at 1 µg/mL [11]: > 90%
19 | CC1CS(=O)(=O)CCN1/N=C/c1ccc([N+](=O)[O-])o1 (stereo not given) [NIFURTIMOX] |  |  |  |  | IC50 [17]: 2 µM
20 | COc1cc(-c2nc3cc(C4=NCCN4)ccc3[nH]2)ccc1OCc1ccccn1.Cl | 4.22 | 0.52 | 100 | 0.12 | 
21 | CCN(CC)CCOc1ccc(-c2nc3cc(C4=NCCN4)ccc3[nH]2)cc1.Cl.Cl | 2.38 | 0.63 | 100 | 0.27 | IC50 [6]: 0.47 µM; IC90 [6]: 1.82 µM; selectivity ratio [7]: > 530; IC50 (L6): > 250 µM; Ratio IC50 [8]: >2; log Ks [9]: 5.2; log Ks (Calf thymus DNA [10]): 5.9; Activity (dsDNA): Active; inhibition at 1 µg/mL [11]: > 90%; log Ks [12]: 5.1; ΔTm [13]: 4.5 °C; ΔTm (Calf thymus DNA [14]): 6.4 °C; Activity (RNA): Active; ΔTm [15]: 17.9 °C; log Ks [16]: 5.3
22 | Cl.Cl.Fc1cc(-c2nc3cc(C4=NCCN4)ccc3[nH]2)ccc1OCCN1CCOCC1 | 1.7 | 0.84 | 100 | 0.49 | 
